What all share (format): in vivo
For assay [1], the system named is Alopecurus myosuroides (ALOMY). In words: Example B pre-emergence herbicidal activity. Conditions: 312 h, rate 250 g/ha, evaluated after 13 days, read-out: Pre-Emergence Activity ALOMY (100=total damage to plant; 0=no damage to plant). Put shortly:
(§1)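 Plants were sprayed 1 day after sowing (pre-emergence) or after 8 days (post-emergence) with active ingredient in acetone/water 50:50 plus 0.5% Tween 20. They were grown in a glasshouse at 24/16 °C, 14 h light and 65% humidity. Damage was scored visually 0–100 after 13 days.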

The test system of assay [2] is Amaranthus retoflexus (AMARE). The experiment in a line: Example B pre-emergence herbicidal activity. The conditions noted are these: Amaranthus retroflexus, 312 h, rate 250 g/ha, evaluated after 13 days, read-out: Pre-Emergence Activity AMARE (100=total damage to plant; 0=no damage to plant). In short, it runs like this:
as §1

Assay [3] deals with Avena fatua (AVEFA). The experiment in a line: Example B pre-emergence herbicidal activity. Conditions: 312 h, rate 250 g/ha, evaluated after 13 days, read-out: Pre-Emergence Activity AVEFA (100=total damage to plant; 0=no damage to plant). In short, it runs like this: as §1
The test system of assay [4] is Echinochloa crus-galli (ECHCG). In words: Example B pre-emergence herbicidal activity. The conditions noted are these: 312 h, rate 250 g/ha, evaluated after 13 days, read-out: Pre-Emergence Activity ECHCG (100=total damage to plant; 0=no damage to plant). Put shortly:
as §1

Assay [5] concerns Setaria faberi (SETFA). In words: Example B pre-emergence herbicidal activity. The conditions noted are these: 312 h, rate 250 g/ha, evaluated after 13 days, read-out: Pre-Emergence Activity SETFA (100=total damage to plant; 0=no damage to plant). Put shortly:
as §1

The test system of assay [6] is Alopecurus myosuroides (ALOMY). The experiment in a line: Example B post-emergence herbicidal activity. Conditions: 312 h, rate 250 g/ha, evaluated after 13 days, read-out: Post-emergence activity ALOMY (100=total damage to plant; 0=no damage to plant). In short, it runs like this:
as §1

In assay [7] the test system is Amaranthus retoflexus (AMARE). The experiment in a line: Example B post-emergence herbicidal activity. The conditions noted are these: Amaranthus retroflexus, 312 h, rate 250 g/ha, evaluated after 13 days, read-out: Post-emergence activity AMARE (100=total damage to plant; 0=no damage to plant). In short, it runs like this:
as §1

Assay [8] concerns Avena fatua (AVEFA). The experiment in a line: Example B post-emergence herbicidal activity. The conditions noted are these: 312 h, rate 250 g/ha, evaluated after 13 days, read-out: Post-emergence activity AVEFA (100=total damage to plant; 0=no damage to plant). In short, it runs like this:
as §1

Assay [9] relates to Echinochloa crus-galli (ECHCG). In words: Example B post-emergence herbicidal activity. Conditions: 312 h, rate 250 g/ha, evaluated after 13 days, read-out: Post-emergence activity ECHCG (100=total damage to plant; 0=no damage to plant). Put shortly: as §1
Assay [10] has as its system Setaria faberi (SETFA). In words: Example B post-emergence herbicidal activity. Conditions: 312 h, rate 250 g/ha, evaluated after 13 days, read-out: Post-emergence activity SETFA (100=total damage to plant; 0=no damage to plant). Put shortly: as §1

Consider `CCc1sc(COc2ccc(Cl)cc2)nc1C1C(=O)[C@@H]2CC[C@@H](C2)C1=O` (stereo partly shown) [Compound T41], for which the pest or weed control at 250 g/ha in [1] came to 80%; in assay [2], 0%; in the assay with Avena fatua (AVEFA) [3] it was 0%; in [4] it was 100%; in the assay on Setaria faberi (SETFA) [5], 40%; in assay [6], 100%. Further, the pest or weed control at 250 g/ha in assay [7] worked out at 0%; in the assay with Avena fatua (AVEFA) [8] it was 70%; in assay [9], 100%; with Setaria faberi (SETFA) [10] it was 100%.
Regarding `Cc1sc(-c2ccc(OC(F)F)cc2)nc1C1C(=O)[C@@H]2CC[C@@H](C2)C1=O` (stereo partly shown) [Compound T42], the pest or weed control at 250 g/ha in assay [1] is 100%; in [2], 0%; with Avena fatua (AVEFA) [3], 0%; in [4], 100%; with Setaria faberi (SETFA) [5], 100%; in assay [6], 100%. For the same molecule, the pest or weed control at 250 g/ha in assay [7] was 0%; in the assay on Avena fatua (AVEFA) [8], 70%; in [9], 100%; in the assay on Setaria faberi (SETFA) [10], 100%.
For the molecule `CCc1sc(-c2ccc(OC(F)F)cc2)nc1C1C(=O)[C@@H]2CC[C@@H](C2)C1=O` (stereo partly shown) [Compound T44], the pest or weed control at 250 g/ha in [1] was found to be 90%; in [2] it was 0%; in the assay with Avena fatua (AVEFA) [3] it was 60%; in assay [4], 100%; in the assay on Setaria faberi (SETFA) [5], 100%; in assay [6], 100%. Further, the pest or weed control at 250 g/ha in [7] was 0%; with Avena fatua (AVEFA) [8], 100%; in assay [9] it was 100%; in the assay on Setaria faberi (SETFA) [10], 100%.
As to `CCc1sc(-c2c(C)cc(Cl)cc2F)nc1C1C(=O)[C@@H]2CC[C@@H](C2)C1=O` (stereo partly shown) [Compound T45], the pest or weed control at 250 g/ha in [1] was 90%; in assay [2], 0%; with Avena fatua (AVEFA) [3], 30%; in [4] it was 100%; in the assay on Setaria faberi (SETFA) [5], 100%; in assay [6], 100%. For the same molecule, the pest or weed control at 250 g/ha in assay [7] is 0%; with Avena fatua (AVEFA) [8], 100%; in assay [9], 100%; in the assay with Setaria faberi (SETFA) [10], 100%.
With `CCc1sc(-c2ccc(Cl)cc2Cl)nc1C1C(=O)[C@@H]2CC[C@@H](C2)C1=O` (stereo partly shown) [Compound T46], the pest or weed control at 250 g/ha in [1] amounted to 60%; in assay [2] it was 0%; in the assay on Avena fatua (AVEFA) [3], 30%; in assay [4], 100%; in the assay with Setaria faberi (SETFA) [5], 90%; in assay [6], 100%. Also, the pest or weed control at 250 g/ha worked out at 0% in assay [7], 90% in the assay with Avena fatua (AVEFA) [8], 100% in [9] and 100% in the assay with Setaria faberi (SETFA) [10].
For `O=C1C(c2nc(-c3ccc(Cl)cc3)sc2Br)C(=O)[C@H]2CC[C@@H]1C2` (stereo partly shown) [Compound T49], the pest or weed control at 250 g/ha in assay [1] worked out at 100%; in [2], 0%; with Avena fatua (AVEFA) [3], 100%; in assay [4] it was 100%; in the assay on Setaria faberi (SETFA) [5] it was 100%; in assay [6], 90%. Further, the pest or weed control at 250 g/ha in assay [7] was 0%; in the assay on Avena fatua (AVEFA) [8] it was 90%; in assay [9] it was 100%; with Setaria faberi (SETFA) [10], 100%.
Consider `CCc1sc(-c2ccc(Cl)cc2Br)nc1C1C(=O)[C@@H]2CC[C@@H](C2)C1=O` (stereo partly shown) [Compound T51], for which the pest or weed control at 250 g/ha was 80% in assay [1]; 0% in assay [2]; 20% in the assay with Avena fatua (AVEFA) [3]; 100% in assay [4]; 100% with Setaria faberi (SETFA) [5]; 100% in [6]. The pest or weed control at 250 g/ha is 0% in assay [7], 100% with Avena fatua (AVEFA) [8], 100% in assay [9] and 100% in the assay on Setaria faberi (SETFA) [10].
With `CCc1sc(-c2cc(F)c(Cl)cc2Cl)nc1C1C(=O)[C@@H]2CC[C@@H](C2)C1=O` (stereo partly shown) [Compound T53], the pest or weed control at 250 g/ha is 90% in [1]; 0% in assay [2]; 80% with Avena fatua (AVEFA) [3]; 100% in assay [4]; 100% with Setaria faberi (SETFA) [5]; 100% in assay [6]. Further, the pest or weed control at 250 g/ha in assay [7] was 0%; with Avena fatua (AVEFA) [8], 100%; in [9], 100%; with Setaria faberi (SETFA) [10] it was 100%.
Consider `CCc1sc(-c2ccc(C)cc2)nc1C1C(=O)[C@@H]2CC[C@@H](C2)C1=O` (stereo partly shown) [Compound T54], for which the pest or weed control at 250 g/ha in assay [1] came to 90%; in assay [2], 0%; in the assay on Avena fatua (AVEFA) [3], 70%; in assay [4] it was 100%; in the assay on Setaria faberi (SETFA) [5] it was 60%; in assay [6] it was 100%. Further, the pest or weed control at 250 g/ha in assay [7] turned out to be 30%; in the assay on Avena fatua (AVEFA) [8], 90%; in assay [9], 100%; with Setaria faberi (SETFA) [10] it was 100%.
For the molecule `O=C1C(c2nc(-c3ccc(Cl)cc3)sc2Cl)C(=O)[C@H]2CC[C@@H]1C2` (stereo partly shown) [Compound T55], the pest or weed control at 250 g/ha is 100% in assay [1]; 0% in assay [2]; 100% in the assay with Avena fatua (AVEFA) [3]; 100% in assay [4]; 100% in the assay on Setaria faberi (SETFA) [5]; 100% in assay [6]. Further, the pest or weed control at 250 g/ha came out at 0% in assay [7], 100% with Avena fatua (AVEFA) [8], 100% in assay [9] and 100% with Setaria faberi (SETFA) [10].
In the case of `Cc1sc(-c2ccccc2)nc1C1C(=O)[C@@H]2CC[C@@H](C2)C1=O` (stereo partly shown) [Compound T56], the pest or weed control at 250 g/ha in [1] is 0%; in [2], 0%; with Avena fatua (AVEFA) [3] it was 0%; in [4], 40%; with Setaria faberi (SETFA) [5] it was 0%; in assay [6], 0%. Also, the pest or weed control at 250 g/ha in assay [7] came to 0%; with Avena fatua (AVEFA) [8], 0%; in assay [9] it was 60%; in the assay on Setaria faberi (SETFA) [10] it was 70%.
On to `Cc1sc(-c2ccc(F)cc2)nc1C1C(=O)[C@@H]2CC[C@@H](C2)C1=O` (stereo partly shown) [Compound T57], for which the pest or weed control at 250 g/ha in [1] amounted to 60%; in assay [2], 0%; with Avena fatua (AVEFA) [3], 20%; in [4] it was 90%; in the assay with Setaria faberi (SETFA) [5], 90%; in assay [6] it was 70%. Besides, the pest or weed control at 250 g/ha in [7] was determined as 0%; in the assay on Avena fatua (AVEFA) [8] it was 60%; in [9], 100%; with Setaria faberi (SETFA) [10], 100%.
Consider `COc1ccc(-c2nc(C3C(=O)[C@@H]4CC[C@@H](C4)C3=O)c(C)s2)cc1` (stereo partly shown) [Compound T58], for which the pest or weed control at 250 g/ha in assay [1] stood at 60%; in assay [2], 0%; in the assay with Avena fatua (AVEFA) [3], 60%; in [4], 100%; in the assay with Setaria faberi (SETFA) [5], 60%; in [6], 90%. Moreover, the pest or weed control at 250 g/ha in [7] amounted to 0%; in the assay on Avena fatua (AVEFA) [8] it was 80%; in [9] it was 100%; in the assay with Setaria faberi (SETFA) [10], 100%.

Source of the values: US8598365B2, “Herbicides” (Syngenta Limited, priority 2007, dated 2013).
